# Assay: Measurement of solubility in capric/caprylic triglyceride
# Format: physicochemical
# Conditions: commercial triazine derivatives, state-of-the-art comparison
row,solubility in the cosmetic oil capric/caprylic triglyceride [%],SMILES
1,6,CCCCC(CC)COc1ccc(-c2nc(-c3ccc(OC)cc3)nc(-c3ccc(OCC(CC)CCCC)cc3O)n2)c(O)c1 (centres unmarked) [Tinosorb S]
2,3,"CCCCC(CC)COC(=O)c1ccc(Nc2nc(Nc3ccc(C(=O)OCC(CC)CCCC)cc3)nc(Nc3ccc(C(=O)OCC(CC)CCCC)cc3)n2)cc1 (centres unmarked) [EHT, Ethylhexyl Triazone]"

# Source: patent publication US8585782B2, “Use of specific bis(biphenyl)triazine derivatives and mixtures thereof as UV absorbers” (BASF SE, priority 2010, dated 2013)
